Residues, ends and D or L forms follow the SMILES beside them. *: point of attachment. X1 = CC(C)CCC[C@@H](C)[C@H]1CC[C@H]2[C@@H]3CC=C4C[C@@H](OC(=O)C*)CC[C@]4(C)[C@H]3CC[C@]12C

The test system of this assay is SARS-CoV-2 PsV. Particulars: PsV, 72 h.
Turning to `CC[C@H](C)[C@H](NC(=O)[C@H](C)NC(=O)[C@H](CCC(=O)O)NC(=O)[C@H](CCC(=O)O)NC(=O)[C@H](CC(C)C)NC(=O)[C@H](CCCCN)NC(=O)[C@H](CCCCN)NC(=O)[C@H](CCSC)NC(=O)[C@H](CCC(=O)O)NC(=O)[C@H](Cc1ccc(O)cc1)NC(=O)[C@H](CCC(=O)O)NC(=O)[C@H](CC(C)C)NC(=O)[C@H](CC(=O)O)NC(=O)[C@H](CC(C)C)NC(=O)[C@H](Cc1ccccc1)NC(=O)[C@@H](NC(=O)[C@@H](NC(=O)[C@H](CC(N)=O)NC(=O)[C@@H](NC(=O)[C@H](CCC(N)=O)NC(=O)[C@H](CC(=O)O)NC(=O)[C@H](CC(C)C)NC(=O)[C@@H](N)CO)[C@@H](C)CC)C(C)C)[C@@H](C)O)C(=O)N[C@@H](CCCCN)C(=O)N[C@@H](CCCCN)C(=O)N[C@@H](CC(C)C)C(=O)N[C@@H](CCC(=O)O)C(=O)N[C@@H](CCC(=O)O)C(=O)N[C@@H](CO)C(=O)N[C@@H](Cc1ccc(O)cc1)C(=O)N[C@H](C(=O)N[C@@H](CC(=O)O)C(=O)N[C@@H](CC(C)C)C(=O)N[C@@H](CCCCN)C(=O)N[C@@H](CCC(=O)O)C(=O)N[C@@H](CC(C)C)C(=O)NCC(=O)N[C@@H](CO)C(=O)NCC(=O)N[C@@H](CO)C(=O)NCC(=O)NCCOCCOCCOCCOCCOCCOCCOCCOCCC(=O)N[C@@H](CSCC(=O)O[C@H]1CC[C@@]2(C)C(=CC[C@H]3[C@@H]4CC[C@H]([C@H](C)CCCC(C)C)[C@@]4(C)CC[C@@H]32)C1)C(N)=O)[C@@H](C)CC` [EK1C5], 31.3 nM corresponded to half-maximal inhibition (IC50).

In the case of `CC[C@H](C)[C@H](NC(=O)[C@H](C)NC(=O)[C@H](CCC(=O)O)NC(=O)[C@H](CCC(=O)O)NC(=O)[C@H](CC(C)C)NC(=O)[C@H](CCCCN)NC(=O)[C@H](CCCCN)NC(=O)[C@H](CCSC)NC(=O)[C@H](CCC(=O)O)NC(=O)[C@H](Cc1ccc(O)cc1)NC(=O)[C@H](CCC(=O)O)NC(=O)[C@H](CC(C)C)NC(=O)[C@H](CC(=O)O)NC(=O)[C@H](CC(C)C)NC(=O)[C@H](Cc1ccccc1)NC(=O)[C@@H](NC(=O)[C@@H](NC(=O)[C@H](CC(N)=O)NC(=O)[C@@H](NC(=O)[C@H](CCC(N)=O)NC(=O)[C@H](CC(=O)O)NC(=O)[C@H](CC(C)C)NC(=O)[C@@H](N)CO)[C@@H](C)CC)C(C)C)[C@@H](C)O)C(=O)N[C@@H](CCCCN)C(=O)N[C@@H](CCCCN)C(=O)N[C@@H](CC(C)C)C(=O)N[C@@H](CCC(=O)O)C(=O)N[C@@H](CCC(=O)O)C(=O)N[C@@H](CO)C(=O)N[C@@H](Cc1ccc(O)cc1)C(=O)N[C@H](C(=O)N[C@@H](CC(=O)O)C(=O)N[C@@H](CC(C)C)C(=O)N[C@@H](CCCCN)C(=O)N[C@@H](CCC(=O)O)C(=O)N[C@@H](CC(C)C)C(=O)NCC(=O)N[C@@H](CO)C(=O)NCC(=O)N[C@@H](CO)C(=O)NCC(=O)NCCOCCOCCOCCOCCOCCOCCOCCOCCOCCOCCOCCOCCOCCOCCOCCOCCOCCOCCOCCOCCOCCOCCOCCOCCC(=O)N[C@@H](CSCC(=O)O[C@H]1CC[C@@]2(C)C(=CC[C@H]3[C@@H]4CC[C@H]([C@H](C)CCCC(C)C)[C@@]4(C)CC[C@@H]32)C1)C(N)=O)[C@@H](C)CC` [EK1C7], the IC50 came out at 84.4 nM.

In turn, `CC[C@H](C)[C@H](NC(=O)[C@H](C)NC(=O)[C@H](CCC(=O)O)NC(=O)[C@H](CCC(=O)O)NC(=O)[C@H](CC(C)C)NC(=O)[C@H](CCCCN)NC(=O)[C@H](CCCCN)NC(=O)[C@H](CCSC)NC(=O)[C@H](CCC(=O)O)NC(=O)[C@H](Cc1ccc(O)cc1)NC(=O)[C@H](CCC(=O)O)NC(=O)[C@H](CC(C)C)NC(=O)[C@H](CC(=O)O)NC(=O)[C@H](CC(C)C)NC(=O)[C@H](Cc1ccccc1)NC(=O)[C@@H](NC(=O)[C@@H](NC(=O)[C@H](CC(N)=O)NC(=O)[C@@H](NC(=O)[C@H](CCC(N)=O)NC(=O)[C@H](CC(=O)O)NC(=O)[C@H](CC(C)C)NC(=O)[C@@H](N)CO)[C@@H](C)CC)C(C)C)[C@@H](C)O)C(=O)N[C@@H](CCCCN)C(=O)N[C@@H](CCCCN)C(=O)N[C@@H](CC(C)C)C(=O)N[C@@H](CCC(=O)O)C(=O)N[C@@H](CCC(=O)O)C(=O)N[C@@H](CO)C(=O)N[C@@H](Cc1ccc(O)cc1)C(=O)N[C@H](C(=O)N[C@@H](CC(=O)O)C(=O)N[C@@H](CC(C)C)C(=O)N[C@@H](CCCCN)C(=O)N[C@@H](CCC(=O)O)C(=O)N[C@@H](CC(C)C)C(=O)N[C@@H](CSCC(=O)O[C@H]1CC[C@@]2(C)C(=CC[C@H]3[C@@H]4CC[C@H]([C@H](C)CCCC(C)C)[C@@]4(C)CC[C@@H]32)C1)C(N)=O)[C@@H](C)CC` [EK1C1] (H-SLDQINVTFLDLEYEMKKLEEAIKKLEESYIDLKELC(X1)-NH2) displayed an IC50 of 480 nM.

As for `CC[C@H](C)[C@H](NC(=O)[C@H](C)NC(=O)[C@H](CCC(=O)O)NC(=O)[C@H](CCC(=O)O)NC(=O)[C@H](CC(C)C)NC(=O)[C@H](CCCCN)NC(=O)[C@H](CCCCN)NC(=O)[C@H](CCSC)NC(=O)[C@H](CCC(=O)O)NC(=O)[C@H](Cc1ccc(O)cc1)NC(=O)[C@H](CCC(=O)O)NC(=O)[C@H](CC(C)C)NC(=O)[C@H](CC(=O)O)NC(=O)[C@H](CC(C)C)NC(=O)[C@H](Cc1ccccc1)NC(=O)[C@@H](NC(=O)[C@@H](NC(=O)[C@H](CC(N)=O)NC(=O)[C@@H](NC(=O)[C@H](CCC(N)=O)NC(=O)[C@H](CC(=O)O)NC(=O)[C@H](CC(C)C)NC(=O)[C@@H](N)CO)[C@@H](C)CC)C(C)C)[C@@H](C)O)C(=O)N[C@@H](CCCCN)C(=O)N[C@@H](CCCCN)C(=O)N[C@@H](CC(C)C)C(=O)N[C@@H](CCC(=O)O)C(=O)N[C@@H](CCC(=O)O)C(=O)N[C@@H](CO)C(=O)N[C@@H](Cc1ccc(O)cc1)C(=O)N[C@H](C(=O)N[C@@H](CC(=O)O)C(=O)N[C@@H](CC(C)C)C(=O)N[C@@H](CCCCN)C(=O)N[C@@H](CCC(=O)O)C(=O)N[C@@H](CC(C)C)C(=O)NCC(=O)N[C@@H](CO)C(=O)NCC(=O)N[C@@H](CSCC(=O)O[C@H]1CC[C@@]2(C)C(=CC[C@H]3[C@@H]4CC[C@H]([C@H](C)CCCC(C)C)[C@@]4(C)CC[C@@H]32)C1)C(N)=O)[C@@H](C)CC` [EK1C2], half-maximal inhibition (IC50) required 419 nM.

As usually defined, the IC50 is the concentration that gives 50% inhibition.

These data come from article PMC7104723 (Cell Research, 2020).
